Laboratory results taken from US9765075B2, “Substituted bridged urea analogs as sirtuin modulators” (GLAXOSMITHKLINE LLC, priority 2013, dated 2017).
Where two headings read alike, the source gives them in different places.

Target: T1, SIRT1 (Homo sapiens, UniProt Q96EB6)
T1 sequence (Q96EB6 1-747): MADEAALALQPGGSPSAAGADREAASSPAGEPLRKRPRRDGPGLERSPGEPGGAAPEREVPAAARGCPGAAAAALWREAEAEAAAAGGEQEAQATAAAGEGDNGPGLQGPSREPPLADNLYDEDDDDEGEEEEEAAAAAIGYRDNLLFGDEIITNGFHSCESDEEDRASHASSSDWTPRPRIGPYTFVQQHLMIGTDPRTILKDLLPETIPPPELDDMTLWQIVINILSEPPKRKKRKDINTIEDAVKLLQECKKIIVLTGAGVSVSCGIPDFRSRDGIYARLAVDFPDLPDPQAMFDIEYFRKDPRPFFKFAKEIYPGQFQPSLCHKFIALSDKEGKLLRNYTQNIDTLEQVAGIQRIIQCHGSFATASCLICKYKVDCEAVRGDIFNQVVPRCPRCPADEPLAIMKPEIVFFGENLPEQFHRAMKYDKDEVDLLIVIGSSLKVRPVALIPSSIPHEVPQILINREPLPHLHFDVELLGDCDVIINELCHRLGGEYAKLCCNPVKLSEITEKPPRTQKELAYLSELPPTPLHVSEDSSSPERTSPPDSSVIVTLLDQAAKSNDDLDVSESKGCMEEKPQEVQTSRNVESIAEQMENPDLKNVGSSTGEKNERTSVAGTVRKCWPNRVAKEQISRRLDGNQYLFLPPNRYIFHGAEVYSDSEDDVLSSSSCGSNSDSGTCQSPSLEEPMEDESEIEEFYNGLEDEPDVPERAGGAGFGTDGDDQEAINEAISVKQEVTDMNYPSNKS
Assay: Trp mass spectrometry assay (SIRT1 activation)
Format: biochemical
Conditions: for Emax: percent maximum fold activation of SIRT1, read-out: Tryp % Fold Act
Outline: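 N-His-tagged SIRT1 (10 nM), expressed in E. coli, was incubated with 0.5 μM Ac-RHKK(Ac)W-NH2 peptide and 120 μM NAD+ for 25 min at 25 °C in HEPES pH 7.5 with […]. The reaction was stopped with formic acid and O-acetyl-ADP-ribose or deacetylated peptide was quantified by mass spectrometry. Results are given as EC1.5 and percent maximal activation relative to DMSO control.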

[1] = concentration of test compound that results in 150% activation of SIRT1, Trp peptide substrate
[2] = Trp mass spectrometry assay, EC1.5 = concentration giving 150% activation of SIRT1
[3] = Trp mass spectrometry assay, EC1.5 = concentration of test compound that results in 150% activation of SIRT1

Tryp AVG EC1.5 (μM) [1] | Emax (Trp peptide substrate) | Tryp AVG EC1.5 (μM) [2] | Emax (Trp mass spectrometry assay) | Tryp AVG EC1.5 (μM) [3] | Compound
A (EC1.5<1 μM) | ≥ 150% |  |  |  | O=C(Nc1ccc(F)cn1)N1c2nc(-c3cncc(Cl)c3)ccc2N2CC[C@H]1C2 [Example 261]
 |  |  | ≥ 150% | A (EC1.5<1 μM) | O=C(Nc1ccc(F)cn1)N1c2nc(-c3cccc(OC(F)(F)F)c3)ccc2N2CC[C@H]1C2 [Example 129]
A (EC1.5<1 μM) | ≥ 150% |  |  |  | N#Cc1cccc(-c2ccc3c(n2)N(C(=O)Nc2ccccn2)[C@H]2CCCN3C2)c1 [Example 348]
B (EC1.5 1-25 μM) | ≥ 150% |  |  |  | O=C(Nc1cncc(F)c1)N1c2nc(-c3cccc(N4CCC(C(F)(F)F)C4)c3)ccc2N2CC[C@H]1C2 (some centres unmarked) [Example 323]
 |  |  | ≥ 150% | A (EC1.5<1 μM) | O=C(Nc1cccc(-c2cnco2)c1)N1c2nc(N3CCCC(C(F)(F)F)C3)ccc2N2CC[C@H]1C2 (some centres unmarked) [Example 212]
A (EC1.5<1 μM) | ≥ 150% |  |  |  | O=C(Nc1ccccn1)N1c2nc(-c3cccc(Cl)c3)ccc2N2CCC[C@H]1C2 [Example 387]
 |  |  | ≥ 150% | B (EC1.5 1-25 μM) | Cn1cc(NC(=O)N2c3nc(-c4cccc(OC(F)(F)F)c4)ccc3N3CC[C@H]2C3)cn1 [Example 167]
B (EC1.5 1-25 μM) | ≥ 150% |  |  |  | CN(C)[C@H]1CCN(c2ccc3c(n2)N(C(=O)Nc2nccs2)[C@H]2CCN3C2)C1 [Example 247]
 |  |  | ≥ 150% | A (EC1.5<1 μM) | O=C(Nc1ccncc1F)N1c2nc(-c3ccnc(C(F)(F)F)c3)ccc2N2CC[C@H]1C2 [Example 151]
 |  |  | ≥ 150% |  | O=C(Nc1ccccn1)N1c2nc(-c3cccc(F)c3)ccc2N2CC[C@H]1C2 [Example 57]
A (EC1.5<1 μM) | ≥ 150% |  |  |  | O=C(Nc1cccnn1)N1c2nc(-c3cncc(C(F)(F)F)c3)ccc2N2CCC[C@H]1C2 [Example 412]
 |  |  | ≥ 150% |  | Cc1cc(C)nc(NC(=O)N2c3nc(-c4cccc(C(F)(F)F)c4)ccc3N3CCC[C@H]2C3)c1 [Example 30]
B (EC1.5 1-25 μM) | ≥ 150% |  |  |  | COc1cc(NC(=O)N2c3nc(-c4cccc(N(C)C)c4)ccc3N3CCC[C@@H]2C3)ncn1 [Example 265]
 |  |  | ≥ 150% | B (EC1.5 1-25 μM) | O=C(Nc1cnccn1)N1c2nc(-c3cccc(N4CCCC4)c3)ccc2N2CC[C@H]1C2 [Example 206]
 |  |  | ≥ 150% | A (EC1.5<1 μM) | O=C(Nc1cncc(F)c1)N1c2nc(C3CCCC(C(F)(F)F)C3)ccc2N2CC[C@H]1C2 (some centres unmarked) [Example 145]
C (EC1.5>25 μM) | ≥ 150% |  |  |  | Cc1cncc(NC(=O)N2c3nc(N4CC[C@H](N(C)C)C4)ccc3N3CC[C@H]2C3)c1 [Example 243]
A (EC1.5<1 μM) | ≥ 150% |  |  |  | O=C(Nc1cnccn1)N1c2nc(-c3ccc(Cl)c(C(F)(F)F)c3)ccc2N2CC[C@H]1C2 [Example 435]
A (EC1.5<1 μM) | ≥ 150% |  |  |  | Cc1cc(-c2ccc3c(n2)N(C(=O)Nc2ccc(F)cn2)[C@H]2CCN3C2)ccn1 [Example 223]
A (EC1.5<1 μM) | ≥ 150% |  |  |  | O=C(Nc1ccc(F)cn1)N1c2nc(-c3cncc(C(F)(F)F)c3)ccc2N2CC[C@H]1C2 [Example 277]
A (EC1.5<1 μM) | ≥ 150% |  |  |  | O=C(Nc1ccc(F)cn1)N1c2nc(N3CCCC(C(F)(F)F)C3)ccc2N2CCC[C@H]1C2 (some centres unmarked) [Example 359]
B (EC1.5 1-25 μM) | ≥ 150% |  |  |  | Cc1cncc(-c2ccc3c(n2)N(C(=O)Nc2cnccn2)[C@H]2CCCN3C2)c1 [Example 512]

Further lines, the compound ahead of its results:

Compound | Tryp AVG EC1.5 (μM) [1] | Emax (Trp peptide substrate) | Tryp AVG EC1.5 (μM) [2] | Emax (Trp mass spectrometry assay) | Tryp AVG EC1.5 (μM) [3]
O=C(Nc1cnccn1)N1c2nc(-c3cc(F)c(F)c(F)c3)ccc2N2CC[C@H]1C2 [Example 416] | C (EC1.5>25 μM) | < 150% |  |  | 
O=C(NCCCc1cccnc1)N1c2nc(-c3cccc(C(F)(F)F)c3)ccc2N2CC[C@H]1C2 [Example 674] |  |  | B (EC1.5 1-25 μM) | ≥ 150% | 
Cn1cc(NC(=O)N2c3nc(-c4cccc(C#N)c4)ccc3N3CC[C@H]2C3)cn1 [Example 186] |  |  |  | ≥ 150% | B (EC1.5 1-25 μM)
O=C(Nc1nnc(-c2ccncc2)s1)N1c2nc(-c3cccc(C(F)(F)F)c3)ccc2N2CC[C@H]1C2 [Example 733] |  |  | A (EC1.5<1 μM) | ≥ 150% | 
C#CCNc1nccc(NC(=O)N2c3nc(-c4cccc(C5(C(F)(F)F)N=N5)c4)ccc3N3CC[C@H]2C3)n1 [Example 809] |  |  | B (EC1.5 1-25 μM) | ≥ 150% | 
COc1cc(NC(=O)N2c3nc(-c4ccnc(N5CCC(F)(F)C5)c4)ccc3N3CC[C@H]2C3)ncn1 [Example 390] | B (EC1.5 1-25 μM) | ≥ 150% |  |  | 
O=C(Nc1cccnc1)N1c2nc(-c3cncc(F)c3)ccc2N2CCC1CC2 [Example 572] | B (EC1.5 1-25 μM) | ≥ 150% |  |  | 
CS(=O)(=O)c1cccc(-c2ccc3c(n2)N(C(=O)Nc2cnccn2)[C@H]2CCN3C2)c1 [Example 415] | A (EC1.5<1 μM) | ≥ 150% |  |  | 
O=C(Nc1nnc(-c2ccccn2)o1)N1c2nc(-c3cccc(C(F)(F)F)c3)ccc2N2CC[C@H]1C2 [Example 720] |  |  | A (EC1.5<1 μM) | ≥ 150% | 
O=C1CN2C[C@H]1N(C(=O)Nc1ccccn1)c1nc(-c3cccc(C(F)(F)F)c3)ccc12 [Example 620] | B (EC1.5 1-25 μM) | ≥ 150% |  |  | 
Cc1cc(-c2ccc3c(n2)N(C(=O)Nc2cccc(-c4cnco4)c2)[C@H]2CCN3C2)ccn1 [Example 480] | A (EC1.5<1 μM) | ≥ 150% |  |  | 
O=C(Nc1cccc(-c2cnco2)n1)N1c2nc(-c3cccc(C(F)(F)F)c3)ccc2N2CC[C@H]1C2 [Example 588] | A (EC1.5<1 μM) | ≥ 150% |  |  | 
Cn1ccc(NC(=O)N2c3nc(-c4cccc(C#N)c4)ccc3N3CC[C@H]2C3)n1 [Example 185] |  |  |  | ≥ 150% | B (EC1.5 1-25 μM)
COc1cc(NC(=O)N2c3nc(-c4cncc(F)c4)ccc3N3CCC2CC3)nc(OC)n1 [Example 578] | B (EC1.5 1-25 μM) | ≥ 150% |  |  | 
O=C(Nc1cc(Br)cc(-c2cnco2)c1)N1c2nc(-c3cccc(C(F)(F)F)c3)ccc2N2CC[C@H]1C2 [Example 562] | A (EC1.5<1 μM) | ≥ 150% |  |  | 
N#Cc1cccc(-c2ccc3c(n2)N(C(=O)Nc2cccnn2)[C@@H]2CCCN3C2)c1 [Example 226] | B (EC1.5 1-25 μM) | ≥ 150% |  |  | 
Cc1cncc(NC(=O)N2c3nc(-c4cccc(C(F)(F)F)c4)ccc3N3C[C@@H](O)[C@H]2C3)c1 [Example 670] |  |  | A (EC1.5<1 μM) | ≥ 150% | 
O=C(Nc1ccncc1F)N1c2nc(-c3cccc(F)c3)ccc2N2CC[C@H]1C2 [Example 74] |  |  |  | ≥ 150% | 
O=C(Nc1cccc(OC[C@H](O)CO)n1)N1c2nc(-c3cccc(C(F)(F)F)c3)ccc2N2CC[C@H]1C2 [Example 818] |  |  | A (EC1.5<1 μM) | ≥ 150% | 
O=C(Nc1ccnc(OC[C@H](O)CO)c1)N1c2nc(-c3cccc(F)c3)ccc2N2CC[C@H]1C2 [Example 73] |  |  |  | ≥ 150% | 
COc1cc(NC(=O)N2c3nc(-c4cccc(CC(O)CO)c4)ccc3N3CC[C@H]2C3)ncn1 (some centres unmarked) [Example 355] | B (EC1.5 1-25 μM) | ≥ 150% |  |  | 
Cc1cccnc1NC(=O)N1c2nc(-c3cccc(Cl)c3)ccc2N2CC[C@H]1C2 [Example 106] |  |  |  | ≥ 150% | C (EC1.5>25 μM)
O=C(Nc1cnccn1)N1c2nc(-c3ccnc(F)c3)ccc2N2CC[C@H]1C2 [Example 284] | B (EC1.5 1-25 μM) | ≥ 150% |  |  | 
O=C(Nc1ccc2[nH]ncc2c1)N1c2nc(-c3cccc(C(F)(F)F)c3)ccc2N2CC[C@H]1C2 [Example 666] |  |  | A (EC1.5<1 μM) | ≥ 150% | 
Cn1ncc2cc(NC(=O)N3c4nc(-c5cccc(N6CCCC6)c5)ccc4N4CC[C@H]3C4)ccc21 [Example 207] |  |  |  | ≥ 150% | A (EC1.5<1 μM)
O=C(Nc1cccnc1)N1c2nc(-c3cccc(Cl)c3)ccc2N2CCC[C@H]1C2 [Example 407] | A (EC1.5<1 μM) | ≥ 150% |  |  | 
[N-]=[N+]=NCC(=O)NCc1ccc(NC(=O)N2c3nc(-c4cccc(C(F)(F)F)c4)ccc3N3CC[C@H]2C3)cc1 [Example 799] |  |  | A (EC1.5<1 μM) | ≥ 150% | 
